Reference: ChEMBL document CHEMBL4411262, “Ulleungdin, a Lasso Peptide with Cancer Cell Migration Inhibitory Activity Discovered by the Genome Mining Approach” (J Nat Prod, 2018)
The source made the active and inactive calls. No cut-off for these calls is given here. Where a SMILES comes first, the peptide text is derived from it. Bridges are numbered along the chain shown (N, C = ends).

Columns and labels:
A549 [1] = assay: Antiinvasive activity against human A549 cells assessed as inhibition of cell invasion at 50 uM after 24 hrs by crystal violet staining based transwell assay relative to control; assay type: functional; conditions: A549, 24 h
A549 [2] = assay: Antimigratory activity against human A549 cells assessed as reduction in cell motility measured at 15 mins interval for 12 hrs by Holomonitor M4 time-lapse cytometric method; assay type: functional, cell-based
A549 [3] = assay: Effect on paxillin expression in human A549 cells up to 50 uM after 24 hrs by Western blot analysis; assay type: functional, cell-based
A549 [4] = assay: Effect on ERK expression in human A549 cells up to 50 uM after 24 hrs by Western blot analysis; assay type: functional, cell-based
A549 [5] = assay: Effect on ERK phosphorylation in human A549 cells up to 50 uM after 24 hrs by Western blot analysis; assay type: cell-based
[6] = biological target: Focal adhesion kinase 1 (Homo sapiens) (UniProt Q05397); assay: Effect on FAK phosphorylation in human A549 cells up to 50 uM after 24 hrs by Western blot analysis; assay type: cell-based
Sequence of Focal adhesion kinase 1 (Homo sapiens) (Q05397 2-1052 limits assumed): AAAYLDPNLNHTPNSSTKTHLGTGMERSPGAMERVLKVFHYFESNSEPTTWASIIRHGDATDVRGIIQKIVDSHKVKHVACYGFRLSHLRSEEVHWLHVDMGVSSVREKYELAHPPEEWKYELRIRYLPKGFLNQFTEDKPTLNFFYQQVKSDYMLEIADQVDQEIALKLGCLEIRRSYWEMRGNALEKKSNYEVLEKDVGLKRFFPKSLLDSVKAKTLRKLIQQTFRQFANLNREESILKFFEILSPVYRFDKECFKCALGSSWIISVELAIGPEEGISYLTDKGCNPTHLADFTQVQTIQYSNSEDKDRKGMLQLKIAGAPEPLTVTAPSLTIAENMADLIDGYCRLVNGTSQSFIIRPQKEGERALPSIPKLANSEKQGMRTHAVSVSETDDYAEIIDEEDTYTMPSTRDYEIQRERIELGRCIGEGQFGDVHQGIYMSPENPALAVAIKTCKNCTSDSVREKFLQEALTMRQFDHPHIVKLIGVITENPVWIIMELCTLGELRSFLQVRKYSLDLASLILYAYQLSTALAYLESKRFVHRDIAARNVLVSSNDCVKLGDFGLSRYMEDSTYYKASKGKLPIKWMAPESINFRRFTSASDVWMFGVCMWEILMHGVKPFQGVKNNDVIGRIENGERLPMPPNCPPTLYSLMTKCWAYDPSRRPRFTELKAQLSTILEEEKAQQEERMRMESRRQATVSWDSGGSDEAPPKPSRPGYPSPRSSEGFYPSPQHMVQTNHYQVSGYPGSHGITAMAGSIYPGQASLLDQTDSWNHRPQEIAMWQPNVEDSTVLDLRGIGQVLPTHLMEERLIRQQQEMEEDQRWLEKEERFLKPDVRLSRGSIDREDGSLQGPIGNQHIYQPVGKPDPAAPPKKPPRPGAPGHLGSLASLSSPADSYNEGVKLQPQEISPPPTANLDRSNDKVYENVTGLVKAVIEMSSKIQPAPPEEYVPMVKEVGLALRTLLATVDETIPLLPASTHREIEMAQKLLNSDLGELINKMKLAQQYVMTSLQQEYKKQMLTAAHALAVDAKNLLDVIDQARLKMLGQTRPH

A549 [7] = assay: Effect on MMP9 expression in human A549 cells up to 50 uM after 24 hrs by Western blot analysis; assay type: functional, cell-based
A549 [8] = assay: Effect on JNK expression in human A549 cells up to 50 uM after 24 hrs by Western blot analysis; assay type: functional, cell-based
[9] = biological target: MAP kinase p38 (Homo sapiens) (UniProt O15264+Q15759+Q16539+P53778); assay: Effect on p38 phosphorylation in human A549 cells up to 50 uM after 24 hrs by Western blot analysis; assay type: cell-based
A549 [10] = assay: Cytotoxicity against human A549 cells assessed as effect on cell viability up to 100 uM after 24 hrs by EZ-Cytox cell viability assay; assay type: cell-based; conditions: a549, 24 h
[11] = biological target: Matrix metalloproteinase-9 (Homo sapiens) (UniProt P14780); assay: Effect on MMP9 phosphorylation in human A549 cells up to 50 uM after 24 hrs by Western blot analysis; assay type: cell-based
Sequence of Matrix metalloproteinase-9 (Homo sapiens) (P14780 whole entry): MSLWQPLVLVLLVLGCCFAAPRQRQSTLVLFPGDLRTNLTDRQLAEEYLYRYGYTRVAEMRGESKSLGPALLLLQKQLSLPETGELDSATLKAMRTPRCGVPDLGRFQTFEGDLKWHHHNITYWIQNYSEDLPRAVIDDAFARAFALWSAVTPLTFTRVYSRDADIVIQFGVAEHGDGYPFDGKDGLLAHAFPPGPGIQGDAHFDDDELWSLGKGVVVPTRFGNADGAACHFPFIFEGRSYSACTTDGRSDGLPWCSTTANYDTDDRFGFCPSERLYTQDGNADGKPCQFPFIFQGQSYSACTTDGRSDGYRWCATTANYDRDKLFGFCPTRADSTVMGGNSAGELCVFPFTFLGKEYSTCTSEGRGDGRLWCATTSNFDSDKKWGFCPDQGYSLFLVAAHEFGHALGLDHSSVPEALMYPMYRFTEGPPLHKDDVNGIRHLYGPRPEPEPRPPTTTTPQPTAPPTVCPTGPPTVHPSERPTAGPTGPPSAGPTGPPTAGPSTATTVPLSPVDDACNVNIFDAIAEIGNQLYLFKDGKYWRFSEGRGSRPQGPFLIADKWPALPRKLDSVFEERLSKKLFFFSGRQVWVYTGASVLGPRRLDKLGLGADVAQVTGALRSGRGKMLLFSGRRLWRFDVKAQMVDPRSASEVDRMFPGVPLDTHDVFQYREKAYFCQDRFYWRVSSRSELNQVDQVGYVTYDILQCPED

Paxillin (Homo sapiens) = Paxillin (Homo sapiens) (UniProt P49023); assay: Effect on paxillin phosphorylation in human A549 cells up to 50 uM after 24 hrs by Western blot analysis; assay type: cell-based
Sequence of Paxillin (Homo sapiens) (P49023 whole entry): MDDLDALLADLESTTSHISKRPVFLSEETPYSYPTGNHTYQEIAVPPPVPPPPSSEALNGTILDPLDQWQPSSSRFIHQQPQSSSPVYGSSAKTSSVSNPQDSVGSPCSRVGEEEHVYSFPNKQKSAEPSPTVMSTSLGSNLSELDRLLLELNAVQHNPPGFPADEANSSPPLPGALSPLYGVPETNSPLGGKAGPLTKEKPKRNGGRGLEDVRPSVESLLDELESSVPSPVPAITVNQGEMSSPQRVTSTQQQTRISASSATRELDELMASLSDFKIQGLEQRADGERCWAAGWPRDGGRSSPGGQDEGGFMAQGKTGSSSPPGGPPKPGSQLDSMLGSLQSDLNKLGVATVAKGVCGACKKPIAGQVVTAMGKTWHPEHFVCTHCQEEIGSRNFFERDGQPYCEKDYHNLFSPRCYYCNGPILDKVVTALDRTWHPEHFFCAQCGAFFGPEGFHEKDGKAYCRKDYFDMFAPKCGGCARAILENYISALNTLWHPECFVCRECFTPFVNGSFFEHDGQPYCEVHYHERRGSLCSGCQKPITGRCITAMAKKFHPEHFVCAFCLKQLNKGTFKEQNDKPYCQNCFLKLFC

A549 [12] = assay: Effect on FAK expression in human A549 cells up to 50 uM after 24 hrs by Western blot analysis; assay type: functional, cell-based
A549 [13] = assay: Antimigratory activity against human A549 cells assessed as reduction in cell migration measured at 15 mins interval for 12 hrs by Holomonitor M4 time-lapse cytometric method; assay type: functional, cell-based
A549 [14] = assay: Effect on MMP2 expression in human A549 cells up to 50 uM after 24 hrs by Western blot analysis; assay type: functional, cell-based
[15] = biological target: c-Jun N-terminal kinase, JNK (Homo sapiens) (UniProt P45983+P53779+P45984); assay: Effect on JNK phosphorylation in human A549 cells up to 50 uM after 24 hrs by Western blot analysis; assay type: cell-based
A549 [16] = assay: Effect on p38 expression in human A549 cells up to 50 uM after 24 hrs by Western blot analysis; assay type: functional, cell-based
[17] = biological target: 72 kDa type IV collagenase (Homo sapiens) (UniProt P08253); assay: Effect on MMP2 phosphorylation in human A549 cells up to 50 uM after 24 hrs by Western blot analysis; assay type: cell-based
Sequence of 72 kDa type IV collagenase (Homo sapiens) (P08253 110-660 limits assumed): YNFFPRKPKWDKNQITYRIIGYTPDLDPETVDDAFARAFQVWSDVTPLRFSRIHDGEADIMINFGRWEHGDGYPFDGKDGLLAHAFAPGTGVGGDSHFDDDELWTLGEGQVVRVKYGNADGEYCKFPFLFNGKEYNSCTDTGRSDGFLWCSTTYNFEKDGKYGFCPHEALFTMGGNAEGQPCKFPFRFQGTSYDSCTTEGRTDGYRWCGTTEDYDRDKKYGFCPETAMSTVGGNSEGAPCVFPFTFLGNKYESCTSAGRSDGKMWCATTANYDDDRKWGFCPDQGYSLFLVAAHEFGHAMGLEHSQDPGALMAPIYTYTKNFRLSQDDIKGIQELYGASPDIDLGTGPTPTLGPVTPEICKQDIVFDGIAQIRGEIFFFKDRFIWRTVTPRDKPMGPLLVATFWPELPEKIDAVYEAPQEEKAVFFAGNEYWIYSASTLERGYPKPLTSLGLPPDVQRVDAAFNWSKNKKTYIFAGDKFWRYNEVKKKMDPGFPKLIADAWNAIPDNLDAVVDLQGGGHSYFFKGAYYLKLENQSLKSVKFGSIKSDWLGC

Compound | inhibition at 50 µM (A549 [1]) | Activity (A549 [2]) | Activity (A549 [3]) | Activity (A549 [4]) | Activity (A549 [5]) | Activity [6] | Activity (A549 [7]) | Activity (A549 [8]) | Activity [9] | Activity (A549 [10]) | Activity [11] | Activity (Paxillin (Homo sapiens)) | Activity (A549 [12]) | Activity (A549 [13]) | Activity (A549 [14]) | Activity [15] | Activity (A549 [16]) | Activity [17]
CC(C)C[C@H](NC(=O)CNC(=O)[C@H](Cc1ccccc1)NC(=O)[C@H](CO)NC(=O)[C@@H]1CC(=O)NCC(=O)N[C@@H](Cc2ccccc2)C(=O)NCC(=O)N[C@@H](CO)C(=O)N[C@@H](CCCCN)C(=O)N2CCC[C@H]2C(=O)N[C@@H](CC(C)C)C(=O)N1)C(=O)N[C@@H](CC(N)=O)C(=O)N[C@@H](Cc1ccccc1)C(=O)N[C@@H](Cc1ccccc1)C(=O)O (GFGSKPLDSFGLNFF-OH; lactam N-8) | 56% |  |  |  |  |  |  |  |  |  |  |  |  |  |  |  |  | 
CC[C@H](C)[C@@H]1NC(=O)[C@H](Cc2ccccc2)NC(=O)CNC(=O)C[C@@H](C(=O)N[C@H](C(=O)N[C@@H](Cc2ccccc2)C(=O)NCC(=O)N[C@@H](Cc2cnc[nH]2)C(=O)N[C@@H](Cc2ccc(O)cc2)C(=O)NCC(=O)NCC(=O)O)[C@@H](C)CC)NC(=O)[C@H](CCCCN)NC(=O)CNC(=O)[C@H](Cc2c[nH]c3ccccc23)NC(=O)CNC1=O (GFIGWGKDIFGHYGG-OH; lactam N-8) | 48.4% | Dose-dependent effect | inactive | inactive | inactive | inactive | inactive | inactive | inactive | Non-Toxic | inactive | inactive | inactive | Dose-dependent effect | inactive | inactive | inactive | inactive
CC[C@H](C)[C@@H]1NC(=O)[C@@H]2CCCN2C(=O)[C@H](CCCCN)NC(=O)[C@H](CO)NC(=O)CNC(=O)[C@H](Cc2ccccc2)NC(=O)CNC(=O)C[C@@H](C(=O)N[C@@H](CO)C(=O)N[C@@H](Cc2ccccc2)C(=O)NCC(=O)N[C@@H](CC(C)C)C(=O)N[C@@H](CO)C(=O)N[C@@H](Cc2c[nH]c3ccccc23)C(=O)N[C@@H](CC(C)C)C(=O)O)NC1=O [SUNGSANPIN] (GFGSKPIDSFGLSWL-OH; lactam N-8) | 53% |  |  |  |  |  |  |  |  |  |  |  |  |  |  |  |  | 
